Data taken from the supplement of paper PMC10307832.

How the values were obtained:
Assay in all cases: relative viability (nuclei count vs DMSO), 5 days (fraction); higher = more cells survive
[1] = compound: CC(C)C[C@H](NC(=O)[C@H](CCc1ccccc1)NC(=O)CN1CCOCC1)C(=O)N[C@@H](Cc1ccccc1)C(=O)N[C@@H](CC(C)C)C(=O)[C@@]1(C)CO1 [Carfilzomib] + CC(=O)c1c(C)c2cnc(Nc3ccc(N4CCNCC4)cn3)nc2n(C2CCCC2)c1=O [Palbociclib] (partner 0.5 µM)
Outline: (§1)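 Medians of duplicate plates are given as relative viability. That measure is the nuclei count in treated wells divided by the count in vehicle wells. Counts were taken on 4× images of lung cancer cell lines in 1536-well plates, 5 days after pin-tool dosing the day after seeding with one drug alone or a fixed anchor-drug dose plus five library-drug doses (not always all listed) in √10 steps.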

Carfilzomib + Pictilisib = compound: CC(C)C[C@H](NC(=O)[C@H](CCc1ccccc1)NC(=O)CN1CCOCC1)C(=O)N[C@@H](Cc1ccccc1)C(=O)N[C@@H](CC(C)C)C(=O)[C@@]1(C)CO1 [Carfilzomib] + CS(=O)(=O)N1CCN(Cc2cc3nc(-c4cccc5[nH]ncc45)nc(N4CCOCC4)c3s2)CC1 [Pictilisib] (partner 1 µM)
Outline: as §1

Crizotinib + Decitabine = compound: C[C@@H](Oc1cc(-c2cnn(C3CCNCC3)c2)cnc1N)c1c(Cl)ccc(F)c1Cl [Crizotinib] + Nc1ncn([C@H]2C[C@H](O)[C@@H](CO)O2)c(=O)n1 [Decitabine] (partner 2 µM)
Outline: as §1

Crizotinib + Bortezomib = compound: C[C@@H](Oc1cc(-c2cnn(C3CCNCC3)c2)cnc1N)c1c(Cl)ccc(F)c1Cl [Crizotinib] + CC(C)C[C@H](NC(=O)[C@H](Cc1ccccc1)NC(=O)c1cnccn1)B(O)O [Bortezomib] (partner 0.002 µM)
Outline: as §1

Cell Line | relative viability ([1]; first compound 0.001 µM) | relative viability ([1]; first compound 0.003162 µM) | relative viability ([1]; first compound 0.01 µM) | relative viability ([1]; first compound 0.03162 µM) | relative viability ([1]; first compound 0.1 µM) | relative viability (Carfilzomib + Pictilisib; first compound 0.001 µM) | relative viability (Carfilzomib + Pictilisib; first compound 0.003162 µM) | relative viability (Carfilzomib + Pictilisib; first compound 0.01 µM) | relative viability (Carfilzomib + Pictilisib; first compound 0.03162 µM) | relative viability (Carfilzomib + Pictilisib; first compound 0.1 µM) | relative viability (Crizotinib + Decitabine; first compound 0.01 µM) | relative viability (Crizotinib + Decitabine; first compound 0.03162 µM) | relative viability (Crizotinib + Decitabine; first compound 0.1 µM) | relative viability (Crizotinib + Decitabine; first compound 0.3162 µM) | relative viability (Crizotinib + Decitabine; first compound 1 µM) | relative viability (Crizotinib + Bortezomib; first compound 0.01 µM) | relative viability (Crizotinib + Bortezomib; first compound 0.03162 µM) | relative viability (Crizotinib + Bortezomib; first compound 0.3162 µM) | relative viability (Crizotinib + Bortezomib; first compound 1 µM) | relative viability (Crizotinib + Bortezomib; first compound 0.1 µM)
201T | 0.355 | 0.357 | 0.383 | 0.345 | 0.31 | 0.67 | 0.659 | 0.668 | 0.727 | 0.666 | 0.803 | 0.848 | 0.871 | 0.845 | 0.893 | 1.07 | 1.09 | 1.14 | 1.2 | 
A549 |  |  |  |  |  | 0.525 | 0.472 | 0.44 | 0.118 | 0.0573 | 0.213 | 0.216 | 0.324 | 0.16 | 0.257 |  |  |  |  | 
A-427 | 0.543 | 0.56 | 0.515 | 0.509 | 0.188 | 0.776 | 0.734 | 0.632 | 0.296 | 0.092 | 0.54 | 0.561 | 0.526 |  | 0.593 | 0.91 | 1.03 |  | 0.999 | 0.953
ABC-1 | 0.831 | 0.736 | 0.441 | 0.273 | 0.253 | 0.691 | 0.471 | 0.237 | 0.249 | 0.216 | 1.09 |  | 1.02 |  | 1.15 | 0.277 | 0.368 | 0.279 | 0.299 | 0.292
CAL-12T | 0.507 | 0.507 | 0.586 | 0.165 | 0.145 |  | 0.767 | 0.586 | 0.304 | 0.143 |  |  |  |  |  | 0.991 | 1.02 |  | 0.907 | 1.13
Calu-6 |  |  |  |  |  | 1.01 | 0.97 | 0.798 | 0.108 | 0.0567 |  |  |  |  |  | 0.936 | 0.988 | 0.892 | 0.958 | 1.03
EBC-1 |  |  |  |  |  | 0.407 | 0.347 | 0.192 | 0.0926 | 0.117 |  |  |  |  |  | 0.599 | 0.564 | 0.231 | 0.259 | 0.28
IA-LM |  |  |  |  |  | 0.293 | 0.305 | 0.292 | 0.0283 | 0.0095 |  |  |  |  |  | 0.848 | 0.754 | 0.744 | 0.704 | 0.735
LK-2 | 0.661 | 0.659 | 0.846 | 0.116 | 0.106 |  | 0.826 | 0.64 | 0.266 | 0.251 | 0.293 | 0.22 | 0.289 | 0.236 | 0.284 |  |  |  |  | 
NCI-H358 | 0.139 | 0.117 | 0.114 | 0.0724 | 0.0923 | 0.424 | 0.453 | 0.305 | 0.147 | 0.135 | 0.184 | 0.215 | 0.2 | 0.241 | 0.214 |  |  |  |  | 
NCI-H522 | 0.873 | 0.977 | 0.848 | 1.08 | 0.274 |  |  |  |  |  | 0.649 | 0.709 | 0.762 | 0.657 | 0.658 |  |  |  |  | 
NCI-H596 |  |  |  |  |  | 0.365 | 0.425 | 0.398 | 0.259 | 0.18 |  | 0.993 | 1.01 | 1.08 | 1.11 | 0.894 | 1.18 | 1.45 | 0.947 | 1.1
NCI-H1299 |  |  |  |  |  | 0.735 | 0.838 | 0.6 | 0.0711 | 0.0334 |  |  |  |  |  | 1.04 | 1.07 | 1.02 | 0.996 | 1
NCI-H1395 |  | 0.676 | 0.635 | 0.497 | 0.31 | 0.564 | 0.644 | 0.593 | 0.479 | 0.525 | 0.661 | 0.688 | 0.743 | 0.791 | 0.732 |  |  |  |  | 
NCI-H1563 |  |  |  |  |  | 0.615 | 0.62 | 0.689 | 0.595 | 0.548 |  |  |  |  |  | 0.744 | 0.859 | 0.779 | 0.832 | 0.857
NCI-H1648 | 0.236 | 0.23 | 0.227 | 0.288 | 0.255 |  |  |  |  |  |  | 0.498 | 0.401 | 0.488 | 0.452 |  |  |  |  | 
NCI-H1703 |  |  |  |  |  | 0.202 | 0.3 | 0.17 | 0.16 | 0.144 |  |  |  |  |  | 0.365 | 0.301 | 0.319 | 0.322 | 0.226
NCI-H1944 | 0.318 | 0.361 | 0.372 | 0.318 | 0.152 | 0.353 | 0.344 | 0.322 | 0.3 | 0.247 | 0.387 | 0.412 | 0.463 | 0.409 | 0.45 |  |  |  |  | 
NCI-H2170 | 0.38 | 0.437 | 0.456 | 0.339 | 0.127 | 0.317 | 0.349 | 0.327 | 0.283 | 0.163 | 0.407 | 0.475 | 0.467 | 0.402 | 0.471 |  |  |  |  | 
NCI-H2228 | 0.466 | 0.886 | 0.557 | 0.104 | 0.105 | 0.465 | 0.468 | 0.206 | 0.102 | 0.115 |  |  |  |  |  | 0.84 | 0.874 | 0.647 | 0.346 | 0.833
NCI-H2342 | 0.488 | 0.57 | 0.58 | 0.576 | 0.44 |  |  |  |  |  | 0.761 | 0.799 | 0.781 | 0.723 |  |  |  |  |  | 
SK-MES-1 | 0.387 | 0.344 | 0.34 | 0.282 | 0.183 | 0.338 | 0.419 | 0.337 | 0.283 | 0.174 | 0.318 | 0.378 | 0.367 | 0.388 | 0.335 |  |  |  |  | 
SW 900 |  | 0.51 | 0.288 | 0.19 | 0.186 |  |  |  |  |  | 0.418 | 0.436 | 0.403 | 0.449 | 0.459 |  |  |  |  | 
